Results from PubChem BioAssay (NCI).
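Compound exposure: 48 hours, 5 concentrations, 96-well plates. The concentration for 50% growth inhibition is given as GI50. TGI: concentration producing complete growth inhibition.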

Assays:
Assay in all cases: NCI tumour cell line growth inhibition, 48 h
[1] = system: ACHN renal
[2] = system: DU-145 prostate
[3] = system: HCC-2998 colon
[4] = system: NCI/ADR-RES ovarian
[5] = system: RXF 393 renal
[6] = system: CAKI-1 renal
[7] = system: CCRF-CEM leukemia
[8] = system: COLO 205 colon
[9] = system: HCT-116 colon
[10] = system: HCT-15 colon
[11] = system: HOP-92 NSCLC
[12] = system: HS 578T breast
[13] = system: KM12 colon
[14] = system: LOX IMVI melanoma
[15] = system: M14 melanoma
[16] = system: MALME-3M melanoma
[17] = system: MCF7 breast
[18] = system: MDA-MB-231 breast
[19] = system: MDA-MB-435
[20] = system: MOLT-4 leukemia
[21] = system: NCI-H226 lung
[22] = system: NCI-H522 lung
[23] = system: OVCAR-3 ovarian
[24] = system: OVCAR-4 ovarian
[25] = system: OVCAR-5 ovarian
[26] = system: OVCAR-8 ovarian
[27] = system: PC-3 prostate
[28] = system: RPMI-8226 leukemia
[29] = system: SF-295 CNS
[30] = system: SF-539 CNS
[31] = system: SK-MEL-2 melanoma
[32] = system: SK-MEL-28 melanoma
[33] = system: SK-MEL-5 melanoma
[34] = system: SN12C renal
[35] = system: SNB-75 CNS
[36] = system: SR leukemia
[37] = system: T-47D breast
[38] = system: TK-10 renal
[39] = system: U251 CNS
[40] = system: UACC-257 melanoma
[41] = system: UO-31 renal
[42] = system: 786-0 renal
[43] = system: A498 renal
[44] = system: A549 NSCLC
[45] = system: BT-549 breast
[46] = system: EKVX NSCLC
[47] = system: HL-60(TB) leukemia
[48] = system: HOP-62 NSCLC
[49] = system: HT29 colon
[50] = system: IGROV1 ovarian
[51] = system: K-562 leukemia
[52] = system: NCI-H23 lung
[53] = system: NCI-H460 lung
[54] = system: SF-268 CNS
[55] = system: SK-OV-3 ovarian
[56] = system: SNB-19 CNS
[57] = system: SW-620 colon
[58] = system: UACC-62 melanoma

Compound `N=C(N)c1ccc(OCCCCCCCCCCOc2ccc(C(=N)N)cc2)cc1` has a GI50 [1] of 1.54 µM, a TGI [1] of 2.88 µM and a GI50 [2] of 1.61 µM. It also gave a TGI [2] of 3.01 µM, a GI50 [3] of 1.29 µM and a TGI [3] of 2.79 µM. It also gave a GI50 [4] of 17.7 µM, a TGI [4] of 83.7 µM and a GI50 [5] of 1.28 µM. The TGI [5] was 2.87 µM.
With `COc1cc(/C=C2\CN(S(=O)(=O)c3ccc(C)cc3)C/C(=C\c3cc(CN4CCCC4)c(O)c(OC)c3)C2=O)cc(CN2CCCC2)c1O` the GI50 [1] was 1.38 µM, the TGI [1] was 2.71 µM and the GI50 [6] was 1.76 µM. The TGI [6] was 3.28 µM, the GI50 [7] was 0.0535 µM and the TGI [7] was 3.74 µM. For the same compound, the GI50 [8] was 0.568 µM, the TGI [8] was 2.03 µM and the GI50 [2] was 0.926 µM. It also gave a TGI [2] of 2.15 µM, a GI50 [3] of 1.64 µM and a TGI [3] of 3.08 µM. It also gave a GI50 [9] of 0.848 µM, a TGI [9] of 2.21 µM and a GI50 [10] of 1.94 µM. For the same compound, the TGI [10] was 5.83 µM, the GI50 [11] was 1.15 µM and the TGI [11] was 3.83 µM. The GI50 [12] was 2.73 µM, the TGI [12] was 7.72 µM and the GI50 [13] was 1.23 µM. The TGI [13] was 2.56 µM, the GI50 [14] was 0.649 µM and the TGI [14] was 2.02 µM. For the same compound, the GI50 [15] was 1.55 µM, the TGI [15] was 3.17 µM and the GI50 [16] was 1.71 µM. For the same compound, the TGI [16] was 3.3 µM, the GI50 [17] was 0.967 µM and the TGI [17] was 3.93 µM. It also gave a GI50 [18] of 1.8 µM, a TGI [18] of 3.53 µM and a GI50 [19] of 1.53 µM. For the same compound, the TGI [19] was 2.97 µM, the GI50 [20] was 0.379 µM and the TGI [20] was 2.92 µM. For the same compound, the GI50 [21] was 1.63 µM, the TGI [21] was 3.16 µM and the GI50 [22] was 0.433 µM. The TGI [22] was 2.3 µM, the GI50 [4] was 12 µM and the TGI [4] was over 100 µM. The GI50 [23] was 1.07 µM, the TGI [23] was 2.35 µM and the GI50 [24] was 1.34 µM. The TGI [24] was 2.69 µM, the GI50 [25] was 2.27 µM and the TGI [25] was 3.84 µM. It also gave a GI50 [26] of 0.71 µM, a TGI [26] of 2.92 µM and a GI50 [27] of 1.56 µM. For the same compound, the TGI [27] was 3.67 µM, the GI50 [28] was 1.14 µM and the TGI [28] was 3.17 µM. For the same compound, the GI50 [29] was 2.23 µM, the TGI [29] was 5.07 µM and the GI50 [30] was 1.6 µM. It also gave a TGI [30] of 3.1 µM, a GI50 [31] of 1.87 µM and a TGI [31] of 4.05 µM. For the same compound, the GI50 [32] was 1.92 µM, the TGI [32] was 3.51 µM and the GI50 [33] was 1.61 µM. It also gave a TGI [33] of 2.97 µM, a GI50 [34] of 1.24 µM and a TGI [34] of 2.8 µM. It also gave a GI50 [35] of 1.1 µM, a TGI [35] of 2.56 µM and a GI50 [36] of 0.412 µM. It also gave a TGI [36] of 3.45 µM, a GI50 [37] of 1.42 µM and a TGI [37] of 3.79 µM. The GI50 [38] was 1.86 µM, the TGI [38] was 3.49 µM and the GI50 [39] was 0.82 µM. For the same compound, the TGI [39] was 2.34 µM, the GI50 [40] was 1.53 µM and the TGI [40] was 3.17 µM. It also gave a GI50 [41] of 1.51 µM and a TGI [41] of 2.96 µM.
`O=[N+]([O-])c1cc([N+](=O)[O-])c(C(F)(F)F)cc1NN=C(c1ccc(O)cc1)c1ccc(O)cc1` showed a GI50 [42] of 2.67 µM, a TGI [42] of 9.54 µM and a GI50 [43] of 3.18 µM. The TGI [43] was 12.7 µM, the GI50 [44] was 2.98 µM and the TGI [44] was 14.5 µM. It also gave a GI50 [1] of 2.41 µM, a TGI [1] of 8.23 µM and a GI50 [45] of 5 µM. For the same compound, the TGI [45] was 42.8 µM, the GI50 [6] was 3.34 µM and the TGI [6] was 15.3 µM. The GI50 [7] was 3.71 µM, the TGI [7] was 14.4 µM and the GI50 [8] was 2.15 µM. For the same compound, the TGI [8] was 5.33 µM, the GI50 [2] was 3.79 µM and the TGI [2] was 13.8 µM. For the same compound, the GI50 [46] was 2.75 µM, the TGI [46] was 14.6 µM and the GI50 [3] was 3.2 µM. It also gave a TGI [3] of 8.58 µM, a GI50 [9] of 2.67 µM and a TGI [9] of 11.9 µM. The GI50 [10] was 2.84 µM, the TGI [10] was 11.7 µM and the GI50 [47] was 3.12 µM. The TGI [47] was 11.8 µM, the GI50 [48] was 3.51 µM and the TGI [48] was 35.8 µM. The GI50 [11] was 3.05 µM, the TGI [11] was 18.8 µM and the GI50 [49] was 3.33 µM. For the same compound, the TGI [49] was 12.1 µM, the GI50 [50] was 3.79 µM and the TGI [50] was 14.4 µM. For the same compound, the GI50 [51] was 2.42 µM, the TGI [51] was 15.7 µM and the GI50 [13] was 2.7 µM. For the same compound, the TGI [13] was 7.85 µM, the GI50 [14] was 1.57 µM and the TGI [14] was 3.21 µM. It also gave a GI50 [15] of 3.18 µM, a TGI [15] of 12.7 µM and a GI50 [16] of 4.72 µM. It also gave a TGI [16] of 35.1 µM, a GI50 [17] of 2.63 µM and a TGI [17] of 7.73 µM. It also gave a GI50 [18] of 3.11 µM, a TGI [18] of 9.41 µM and a GI50 [19] of 1.92 µM. The TGI [19] was 4.92 µM, the GI50 [20] was 1.8 µM and the TGI [20] was 5.77 µM. It also gave a GI50 [21] of 4.03 µM, a TGI [21] of 23.7 µM and a GI50 [52] of 4.23 µM. The TGI [52] was 31 µM, the GI50 [53] was 2.05 µM and the TGI [53] was 5.13 µM. The GI50 [22] was 3.82 µM, the TGI [22] was 39.7 µM and the GI50 [4] was 4.44 µM. It also gave a TGI [4] of 65.4 µM, a GI50 [23] of 2.42 µM and a TGI [23] of 6.11 µM. For the same compound, the GI50 [24] was 3.25 µM, the TGI [24] was 19.2 µM and the GI50 [25] was 11 µM. For the same compound, the TGI [25] was 50 µM, the GI50 [26] was 4.2 µM and the TGI [26] was over 100 µM. The GI50 [27] was 3.11 µM, the TGI [27] was 78 µM and the GI50 [28] was 3.71 µM. It also gave a TGI [28] of 12.6 µM, a GI50 [5] of 2.64 µM and a TGI [5] of 8.47 µM. The GI50 [54] was 2.63 µM, the TGI [54] was 7.66 µM and the GI50 [29] was 1.57 µM. It also gave a TGI [29] of 3.81 µM, a GI50 [30] of 2.01 µM and a TGI [30] of 4.45 µM. It also gave a GI50 [31] of 2.56 µM, a TGI [31] of 5.99 µM and a GI50 [32] of 1.89 µM. The TGI [32] was 4.47 µM, the GI50 [33] was 1.64 µM and the TGI [33] was 3 µM. For the same compound, the GI50 [55] was 4.25 µM, the TGI [55] was 14.6 µM and the GI50 [34] was 3.3 µM. The TGI [34] was 13.4 µM, the GI50 [56] was 4.67 µM and the TGI [56] was 16.6 µM. It also gave a GI50 [35] of 3.53 µM, a TGI [35] of 16.8 µM and a GI50 [36] of 1.55 µM. For the same compound, the TGI [36] was 6.42 µM, the GI50 [57] was 3.44 µM and the TGI [57] was 12.3 µM. For the same compound, the GI50 [37] was 2.74 µM, the TGI [37] was 13.3 µM and the GI50 [38] was 6.06 µM. It also gave a TGI [38] of 33.4 µM, a GI50 [39] of 2.92 µM and a TGI [39] of 11.7 µM. It also gave a GI50 [40] of 4.29 µM, a TGI [40] of 17.5 µM and a GI50 [58] of 2.07 µM. It also gave a TGI [58] of 4.6 µM, a GI50 [41] of 3.15 µM and a TGI [41] of 13.3 µM.
